Measurements published in patent US20050032863A1, “Method of treating or preventing central nervous system disorders with compounds having selectivity for the alpha 3 subunit of the benzodiazepine receptor” (priority 2003, published 2005).
pEC50: −log10 of the molar value. Several values for one entry are separate records, joined by “and”; a condition that tells them apart may be missing. Equal values may be shown once. Entries after “also recorded” stand apart in the source; their conditions may differ.

Key:
[1] = tested on: dt^sz mutant Syrian golden hamsters; experiment: Genetic hamster model of paroxysmal dystonia, triple stimulation; assay type: in vivo, Syrian golden hamster
Protocol: Drug testing was performed at the maximal sensitivity of the hamsters for induction of dystonic attacks, i.e. between 30 and 40 days of age. Dystonic attacks were induced by a triple stimulation technique: The hamsters were taken from their home cage and placed on a balance (to determine body weight), were then injected i.p. with saline (control) or drug, and immediately placed individually in a new and empty plastic cage. Dystonic attacks started within a few minutes after placing the hamsters in the new plastic cage.
The final stage persisted for two to five hours, but rapid recovery occurred thereafter.
A first group of animals (n=8) was tested for ocurrence and severity of dystonic attacks at the age of 32-33 days after administration of vehicle (i.p.) as well as after performing the triple stimulation procedure as described above. Two or three days later, the same animals received E131-00139 i.p. and were again observed for 3 hours and again 2-3 days later the animals were re-tested after vehicle administration to serve as post dose control. […] The first stack represents the first hour of observation statring with drug administration, the second stack of bars represents the second hour of observation and the third stack the third hour.
The first (open) bar represents the control response of the animals recorded 2-3 days prior to the drug test, the black bar represents the results obtained after drug administration and the third (gray) bar represents the post drug control tested 2-3 days after the drug administration. The pre-and post test was used to exclude that a reduction of severity of stages was only due to a reduction in sensitivity for the induction of dystonic attacks is age dependent.

[2] = biological target: T1, recombinant rat α1β2γ2 GABAA receptors (Rattus norvegicus, UniProt P62813); experiment: Whole-cell patch-clamp, modulation of GABA (EC20)-induced currents in transfected HEK 293 cells, α1β2γ2; assay type: cell-based
T1 construct: expressed in transfected cells; host or cells: HEK 293
T1 sequence (P62813 28-455): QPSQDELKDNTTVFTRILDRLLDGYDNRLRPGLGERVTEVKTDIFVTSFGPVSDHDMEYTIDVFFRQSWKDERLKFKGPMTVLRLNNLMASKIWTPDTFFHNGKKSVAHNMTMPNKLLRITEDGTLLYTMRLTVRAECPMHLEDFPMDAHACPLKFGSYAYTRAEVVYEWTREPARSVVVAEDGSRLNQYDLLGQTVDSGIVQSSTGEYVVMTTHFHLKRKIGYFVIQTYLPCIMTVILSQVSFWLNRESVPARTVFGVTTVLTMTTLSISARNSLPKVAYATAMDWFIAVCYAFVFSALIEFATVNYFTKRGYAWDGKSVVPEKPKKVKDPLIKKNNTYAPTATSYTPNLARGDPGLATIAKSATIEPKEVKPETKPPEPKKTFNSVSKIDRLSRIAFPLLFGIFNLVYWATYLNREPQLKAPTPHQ
Protocol: (§1) For electrophysiological recording HEK-293 cells were passaged and replated on 12-mm glass coverslips located in 9.6-cm plastic dishes filled with 10 ml of Minimum Essential Medium (MEM, Gibco) supplemented with 158 mg/l sodium bicarbonate, 2 mM glutamine (Gibco), 100 U/ml penicillin-streptomycin (Gibco), and 10% foetal calf serum (Gibco). Cultures were maintained at 37° C. in a humidified […]/5% CO2 atmosphere for 2-3 days.
(§2) Transfection with recombinant rat GABAA receptors was carried out as described in detail (Korpi and Lüddens, 1993, Lüddens and Korpi, 1995b). Briefly, HEK 293 cells were transfected in triple combinations using the phosphate precipitation method with rat GABAA receptor cDNAs in eukaryotic expression vectors (Pritchett, 1990) for the α, β and γ subunits. For optimal receptor expression, final concentrations (μg vector DNA per 9.6 cm tissue culture plate) were: α1, 2; α2 4.8; α3, 1.2; α4, 10; α5, 0.8; β2, 0.4; and γ2S, 0.3. The γ2S variant is abbreviated γ2 in the remainder of the text. To identify transfected cells all subunit combinations were co-transfected with 1 μg per plate of pNI-EGFP.
(§3) Two days after transfection single coverslips containing HEK 293 cells were placed in a recording chamber mounted on the movable stage of a fluorescence microscope (Olympus IX70) and perfused with a defined saline solution containing (in mM): 130 NaCl, 5.4 KCl, 2 CaCl2, 2 MgSO4, 10 glucose, 5 sucrose, and 10 HEPES (free acid), pH adjusted to 7.35 with about 35 mM NaOH. Transfected cells were identified by their green fluorescence due to the expression of the pNI-EGFP vector and ligand-mediated membrane currents of these cells were studied in the whole-cell configuration of the patch-clamp technique (Hamil et al., 1981). Patch-clamp pipettes were pulled from hard borosilicate capillary glass (0.5 mm ID, 1.5 mm OD, Vitrex, Science Products GmbH, Hofheim, Germany) using a horizontal puller (Sutter Instruments, CA, Model P-97) in a multi-stage process.
(§4) Seal resistances >1 GΩ were routinely obtained by applying gentle suction to the pipettes. Membrane rupture was monitored electrically as an increase in capacity. Pipette capacitance, membrane capacitance, and series resistance were electronically compensated to achieve minimal capacitative transients. A series resistance compensation of >60% was regularly used.
(§5) In all cells recorded the presence of the γ2 subunit in the heteropentamere was monitored by the application of 1 μM zolpidem plus the EC20 of GABA before testing the experimental drugs.
(§6) Responses of the cells were recorded by a patch-clamp amplifier (EPC-8, HEKA-Electronic, Lambrecht, Germany) in conjunction with a standard personal computer and the pClamp 8.1 software package (Axon Instruments, Foster City, Calif.). The standard holding-potential for the cells was −40 mV. Whole cell currents were low-pass filtered by an eight-pole Bessel filter at 5 or 3 kHz before being digitised by a Digidata 1322A interface (Axon Instruments, Foster City, Calif.) and recorded by the computer at a sampling rate of at least […].
(§7) Efficacy, potency, and GABAA receptor a subunit specificity of the new compound ELB139 was tested with the whole cell configuration of the patch-clamp technique by applying increasing drug concentration together with GABA of the approximate EC20 on green fluorescing cells. BZ binding site specificity of the new compound was tested on the same cells in an identical experimental setting with additionally applying 10 μM Ro15-1788.

[3] = biological target: T2, recombinant rat α2β2γ2 GABAA receptors (Rattus norvegicus, UniProt P23576); experiment: Whole-cell patch-clamp, modulation of GABA (EC20)-induced currents in transfected HEK 293 cells, α2β2γ2; assay type: cell-based; details: α2β2γ2
T2 construct: expressed in transfected cells; host or cells: HEK 293
T2 sequence (P23576 29-451): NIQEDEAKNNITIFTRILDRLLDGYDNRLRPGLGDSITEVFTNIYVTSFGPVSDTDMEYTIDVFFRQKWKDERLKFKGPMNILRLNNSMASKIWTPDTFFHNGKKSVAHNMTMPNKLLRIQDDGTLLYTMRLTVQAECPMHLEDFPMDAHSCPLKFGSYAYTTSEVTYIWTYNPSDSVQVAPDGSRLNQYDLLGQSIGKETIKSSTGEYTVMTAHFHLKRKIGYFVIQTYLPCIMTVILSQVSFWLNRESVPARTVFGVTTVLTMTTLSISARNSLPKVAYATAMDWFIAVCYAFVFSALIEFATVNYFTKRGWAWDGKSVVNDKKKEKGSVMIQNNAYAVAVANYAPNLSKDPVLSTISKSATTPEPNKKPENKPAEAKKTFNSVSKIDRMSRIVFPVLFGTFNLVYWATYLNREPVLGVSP
Protocol: as §1, §2, §3, §4, §5, §6, §7

[4] = biological target: T3, recombinant rat α3β2γ2 GABAA receptors (Rattus norvegicus, UniProt P20236); experiment: Whole-cell patch-clamp, modulation of GABA (EC20)-induced currents in transfected HEK 293 cells, α3β2γ2; assay type: cell-based
T3 construct: expressed in transfected cells; host or cells: HEK 293
T3 sequence (P20236 29-493): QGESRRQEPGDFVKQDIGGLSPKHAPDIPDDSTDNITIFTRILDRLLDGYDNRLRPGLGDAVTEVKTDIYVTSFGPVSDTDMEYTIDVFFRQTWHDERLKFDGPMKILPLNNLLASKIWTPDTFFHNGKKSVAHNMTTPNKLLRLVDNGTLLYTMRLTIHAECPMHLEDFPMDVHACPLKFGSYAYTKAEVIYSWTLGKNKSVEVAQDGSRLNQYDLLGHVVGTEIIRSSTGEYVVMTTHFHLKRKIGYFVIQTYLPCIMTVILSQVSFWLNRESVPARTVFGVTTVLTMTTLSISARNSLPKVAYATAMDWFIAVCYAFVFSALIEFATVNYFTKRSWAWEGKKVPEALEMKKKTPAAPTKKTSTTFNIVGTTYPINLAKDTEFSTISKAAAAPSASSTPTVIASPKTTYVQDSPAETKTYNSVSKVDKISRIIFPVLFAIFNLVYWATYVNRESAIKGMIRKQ
Protocol: as §1, §2, §3, §4, §5, §6, §7

`O=C1N=C(N2CCCCC2)CN1c1ccc(Cl)cc1` [ELB139, 1-(4-chlorophenyl)-4-piperidinoimidazolin-2-one] was tested, and the antidystonic activity ([1]; 5 mg/kg i.p.) was “still a significant antidystonic activity was present”, the tolerability and sedation ([1]; 10 mg/kg i.p.) was “well tolerated and no sedation was observed” and the “severity of the dystonic attack” value ([1]; 10 mg/kg i.p., total observation period 3 h) was “significantly reduced”. The “concentration at which positive current modulation was observable” value ([2]; α1-containing receptors) was 0.3 µM, the “maximal positive modulation of GABA-induced current” value ([2]; α1-containing receptors, maximum at 30 μM (ELB139), at 1 μM (diazepam)) was 1.6±0.08 fold and 1.6 fold and the “concentration at which significant agonistic effects were noticeable” value ([2]; α1β2γ2) was “about 1 μM”. The pEC50 ([2]; α1β2γ2, applied with approximate GABA EC20, read-out: EC50 (ELB139)) was 5.42, the “effect of 10 μM Ro15-1788 on the current enhancement by the compound” value ([2]; α1β2γ2, co-applied 10 μM Ro15-1788 (flumazenil)) was “completely abolished” and the “Potentiation* (ELB139)” value ([2]; α1β2γ2, with GABA EC20, graphically determined) was 1.6 ± 0.08. The “modulation of GABA-induced currents (in words)” value ([3]; ELB139 0.01-30 μM) was “failed to evoke agonistic or inverse agonistic modulation; also recorded: no agonistic effect; also recorded: not at all active”, the pEC50 ([3]; applied with approximate GABA EC20, read-out: EC50 (ELB139)) was < 4.52 and the “concentrations at which positive current modulation was observable” value ([4]; α3-containing receptors) was “above 30 nM”. The “highest efficacy / maximal stimulation of GABA-induced current” value ([4]; α3-containing receptors, ELB139 at concentrations above 0.3 μM, diazepam at 1 μM) was 1.3±0.07 fold and 1.3 fold, the “effect of 10 μM Ro15-1788 on the current enhancement by the compound” value ([4]; α3β2γ2, co-applied 10 μM Ro15-1788 (flumazenil)) was “completely abolished” and the “Potentiation* (ELB139)” value ([4]; α3β2γ2, with GABA EC20, graphically determined) was 1.3 ± 0.07. For the same compound, the pEC50 ([4]; α3β2γ2, with GABA EC20, value marked * = graphically determined, read-out: EC50 (ELB139)) was 7.22.
